These results are taken from paper PMC8270301, “Novel Facet of an Old Dietary Molecule? Direct Influence of Caffeine on Glucose and Biogenic Amine Handling by Human Adipocytes” (Molecules, 2021).

In test [1] the target is T1, primary amine oxidase (SSAO/PrAO/VAP-1) (Homo sapiens, UniProt Q16853).
T1 construct: gene AOC3; native enzyme in homogenates of human subcutaneous adipose tissue
T1 sequence (Q16853 1-763): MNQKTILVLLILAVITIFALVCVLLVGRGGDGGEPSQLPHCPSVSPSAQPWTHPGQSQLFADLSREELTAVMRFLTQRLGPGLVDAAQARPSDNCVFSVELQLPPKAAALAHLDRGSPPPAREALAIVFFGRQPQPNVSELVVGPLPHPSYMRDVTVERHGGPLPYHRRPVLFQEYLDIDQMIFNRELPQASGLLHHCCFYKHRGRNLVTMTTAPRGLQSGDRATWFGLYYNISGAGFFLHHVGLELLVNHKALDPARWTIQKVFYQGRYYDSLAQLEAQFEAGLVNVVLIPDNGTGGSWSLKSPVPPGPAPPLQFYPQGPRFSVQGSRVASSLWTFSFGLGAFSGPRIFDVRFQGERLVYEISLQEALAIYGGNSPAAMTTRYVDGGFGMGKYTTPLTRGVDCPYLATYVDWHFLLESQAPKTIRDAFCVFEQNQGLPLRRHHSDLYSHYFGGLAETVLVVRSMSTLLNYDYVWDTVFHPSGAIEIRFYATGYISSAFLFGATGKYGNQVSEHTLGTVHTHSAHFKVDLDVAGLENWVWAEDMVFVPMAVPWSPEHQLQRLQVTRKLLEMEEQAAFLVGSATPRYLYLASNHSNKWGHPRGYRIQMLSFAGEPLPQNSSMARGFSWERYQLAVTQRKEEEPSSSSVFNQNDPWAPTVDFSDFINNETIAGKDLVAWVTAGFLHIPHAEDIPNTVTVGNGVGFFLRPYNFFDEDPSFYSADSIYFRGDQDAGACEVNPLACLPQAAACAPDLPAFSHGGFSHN
Nature of the test: Amplex Red hydrogen peroxide release in tissue homogenate, Lineweaver-Burk plot. It counts as cell-based.

Test [2] addresses T1, primary amine oxidase (SSAO/PrAO/VAP-1). Nature of the test: Amplex Red hydrogen peroxide assay of benzylamine oxidation in tissue homogenate, Lineweaver-Burk analysis. It counts as biochemical.

As to `NCc1ccccc1` [benzylamine], in test [1], the “Amplex Red hydrogen peroxide release in tissue homogenate, Lineweaver-Burk plot” value was “Lineweaver–Burk plot of the inhibition of benzylamine oxidation by increasing doses of caffeine”. The Ki is the equilibrium dissociation constant of an inhibitor or competing ligand from its target. Low readings indicate tighter binding, high ones weaker binding. In the case of `Cn1c(=O)c2c(ncn2C)n(C)c1=O` [caffeine, 1,3,7-trimethylxanthine], in test [2], the Ki is 880 µM.
